Several values for one entry are separate records, joined by “and”; a condition that tells them apart may be missing. Identical values can stand only once. Counter-ions that a name gives are not always drawn. Like-named read-outs stand apart in the source and are kept apart here.
Experiments:
SUDHL5 [1] = assay: Antiproliferation assay (Assay 7), SUDHL5; type: cell-based; settings: CellTiter-Glo, median, read-out: Antiproli SUDHL5 [M] (median) IC50
Procedure, shortened: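 Plate cells in treatment and day 0 reference plates; read day 0 plate with CellTiter-Glo after 10 min; incubate treated plates 72 h at 37° C; read them identically.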

SUDHL5 [2] = assay: Induction of cytotoxicity (Assay 6), SUDHL5; settings: read-out: Cytotox SUDHL5 [M] (median) IC50, CellTiter-Glo, 5 hours, SUDHL5
BCL-2 = BCL-2 (Homo sapiens (Human), UniProt P10415); assay: Protein-protein interaction assay BCL-2/Bad BH3 peptide (BCL-2 assay, TR-FRET); type: binding; settings: His-BCL-2 / Bad BH3 peptide, median
BCL-2, sequence (P10415 other isoform, or with tags, fused parts or gaps): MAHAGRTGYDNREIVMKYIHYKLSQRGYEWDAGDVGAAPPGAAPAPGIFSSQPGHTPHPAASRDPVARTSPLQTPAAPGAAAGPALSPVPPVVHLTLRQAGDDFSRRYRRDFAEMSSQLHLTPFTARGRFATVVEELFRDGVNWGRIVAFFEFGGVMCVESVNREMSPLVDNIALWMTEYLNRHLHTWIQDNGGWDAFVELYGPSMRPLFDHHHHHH
Procedure: Assay 3 Protein-Protein Interaction Assay: BCL-2/Bad BH3 Peptide (BCL-2 Assay)
The dose-dependent inhibition by the compounds described in this invention of the interaction between BCL-2 and the BH3 domain of Bad (both human) was determined using a steady state binding competition assay with time-resolved fluorescence energy transfer (TR-FRET) readout. For that purpose BCL-2 (amino acids 1-211, C-terminal fused to a hexahistidine (6×His) tag (SEQ ID 5) and a synthetic Bad BH3-derived peptide of sequence Biotin-PEG2-PEG2-NLWAAQRYGRELRR-Nle-SDEFVDSFKK-amide (SEQ ID 4) served as protein receptor and tracer ligand respectively. The recombinant BCL-2 protein (expressed in E. coli) was purchased from BPS Bioscience (San Diego, Calif., USA). The Bad BH3-derived peptide can be obtained from e.g. Biosyntan (Berlin, Germany).
In the assay 11 different concentrations of each compound (0.1 nM, 0.33 nM, 1.1 nM, 3.8 nM, 13 nM, 44 nM, 0.15 μM, 0.51 μM, 1.7 μM, 5.9 μM and 20 μM) were typically measured as duplicates in the same microtiter plate. For that, 100-fold concentrated DMSO solutions were prepared by serial dilutions (1:3.4) of a 2 mM stock solution in a clear, 384-well microtiter plate (Greiner Bio-One, Frickenhausen, Germany). From there, 50 nl were transferred in a dark test plate (Greiner Bio-One, Frickenhausen, Germany). The assay was initiated by addition of 2 μl of a 2.5-fold concentrated His-BCL-2 solution (usually for a 1 nM end concentration in 5 μl reaction volume) in aqueous assay buffer [50 mM Tris/HCl pH 7, 100 mM sodium chloride (NaCl), 50 mM potassium fluoride (KF), 0.005% Tween-20, 2 mM DTT, 0.1% bovine gamma globulin (BGG)] to the compounds in the assay plate. This was followed by a 10-minute incubation step at 22° C. for pre-equilibration of the putative complex between His-BCL-2 and the compounds. After that, 3 μl of a 1.67-fold concentrated solution (in assay buffer) consisting of Bad BH3-derived peptide (1 nM end concentration) and TR-FRET detection reagents [1.67 nM anti-His-Eu cryptate and 1.67 nM streptavidin-XL665 (both from Cisbio Bioassays, Codolet, France)], were added.
The mixture was incubated in the dark for one hour at 22° C. and then overnight at 4° C. The formation of BCL-2/Bad complexes was determined by measuring the resonance energy transfer of the anti-His-Eu-cryptate antibody to the streptavidin-XL665 present in the reaction. For that purpose, the fluorescence emission at 620 nm and 665 nm after excitation at 330-350 nm was measured in a TR-FRET measuring instrument, for instance a Rubystar or a Pherastar (both from BMG Lab Technologies, Offenburg, Germany) or a Viewlux (Perkin-Elmer). The ratio of the emission at 665 nm and at 622 nm was used as indicator of the amount of BCL-2/Bad complexes present.
The resulting data (ratio) were normalized, taking 0% inhibition as the mean value of control measurements (usually 32 data points) where all reagents were included. In this case 50 nl DMSO were used instead of compounds. A 100% inhibition corresponded to the mean value of control measurements (usually 32 data points) where all reagents except BCL-2 were included. IC50 values were determined by regression analysis based on a 4 parameter equation (minimum, maximum, IC50, Hill; Y=Max+(Min−Max)/(1+(X/IC50)^HiII) using the Screener Software (Genedata).

SUDHL10 [3] = assay: Induction of caspase-3/7 activity (Assay 4), SUDHL10; type: cell-based; settings: caspase-3/7 induction, median
Procedure, shortened: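 DLBCL cells were exposed to compounds for 3 hours at 37 °C, then caspase-3/7 activation was read with Caspase-Glo 3/7 reagent. After subtracting medium-only background, EC50s were derived with fixed C0=1 and the reference compound's maximal induction as plateau.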

SUDHL10 [4] = assay: Induction of cytotoxicity (Assay 6), SUDHL10; settings: read-out: Cytotox SUDHL10 [M] (median) IC50, CellTiter-Glo, 5 hours, SUDHL10
Procedure: Assay 6 Induction of Cytotoxicity Upon Treatment of Cells with Selected Compounds
Therefore, cytotoxicity assays were run in parallel in SUDHL5 and SUDHL10 cells.
The different cell lines were plated in culture medium (RPMI 1640 [GIBCO #22400-089] supplemented with 10% Fetal Bovine Serum) at a density of 3,300 cells in 30 μl/well in a sterile, solid black, flat bottom, polystyrene, TC-treated 384-well microplate (Corning #3571) using Multidrop Combi Reagent Dispenser. As a control, medium without cells was also added to the plate. Cells were incubated in a humidified incubator at 37° C. overnight. On the next day, the cells were treated with compounds (stock solution, 10 mM in DMSO) using the HP D300 Digital Dispenser in a concentration range of 3.3×10e-5 M (33 μM) to 5×10e-9 M (5 nM) in a single-dot curve with at least 16 dilutions and a DMSO concentration of 0.33%. Rim wells were excluded. The cells were incubated for 5 hours in a humidified incubator at 37° C. After this incubation, 30 μl of CellTiter-Glo® Luminescent Cell Viability reagent (Promega, G7573) was added to each well using the Multidrop Combi Reagent Dispenser, followed by 15 minutes incubation on a shaker at room temperature. Finally, luminescence was read at 0.1 ms, with a gain of 3000 using the PHERAstar FS microplate reader (BMG Labtech).

Row | Structure (SMILES) | IC50 (SUDHL5 [1]; Homo sapiens, SU-DHL-5, 72 h) | IC50 (BCL-2) | EC50 (SUDHL10 [3]; Homo sapiens, SU-DHL10, 3 h) | IC50 (SUDHL5 [1]; 72 hours) | EC50 (SUDHL10 [3]; 3 hours) | IC50 (SUDHL5 [2]; Homo sapiens, SU-DHL-5, 5 h) | IC50 (SUDHL10 [4]; Homo sapiens, SU-DHL10, 5 h) | IC50 (SUDHL5 [2]) | IC50 (SUDHL10 [4])
1 | Cc1c2c(nn1C)CN(CCN1CCOCC1)S(=O)(=O)CCCn1c(C(=O)O)c(CCCOc3cccc4ccccc34)c3cccc-2c31 (racemic) [Example 1, (rac)-2,3-Dimethyl-14-[2-(morpholin-4-yl)ethyl]-7-{3-[(naphthalen-1-yl)oxy]propyl}-13,13-dioxo-10,11,12,13,14,15-hexahydro-2H-13λ^6-pyrazolo[3′,4′:4,5][1,2,8]thiadiazacycloundecino-[6,7,8-hi]indole-8-carboxylic acid] | 7.2e-06 M | > 20 µM | 14 µM | – | – | 6.7e-06 M | 1.3e-05 M | – | –
2 | Cc1c2c(nn1C)CN(C)S(=O)(=O)CCCn1c(C(=O)O)c(CCCOc3cccc4ccccc34)c3ccc(Cl)c-2c31 (racemic) [Example 4, (rac)-4-Chloro-2,3,14-trimethyl-7-{3-[(naphthalen-1-yl)oxy]propyl}-13,13-dioxo-10,11,12,13,14,15-hexahydro-2H-13λ^6-pyrazolo[3′,4′:4,5][1,2,8]thiadiazacycloundecino-[6,7,8-hi]indole-8-carboxylic acid] | – | > 20 µM | – | 9.2e-07 M | 1.6 µM | – | – | 8.1e-07 M | 1.2e-06 M
3 | CCc1c2c(nn1C)CN(C)S(=O)(=O)CCCn1c(C(=O)O)c(CCCOc3cccc4cc(F)ccc34)c3ccc(F)c-2c31 (racemic) [Example 7, (rac)-12-Ethyl-13-fluoro-1-(3-((6-fluoronaphthalen-1-yl)oxy)propyl)-8,11-dimethyl-5,6,9,11-tetrahydro-4H,8H-pyrazolo[3′,4′:4,5][1]thia[2,8]diazacycloundecino[6,7,8-hi]indole-2-carboxylic acid 7,7-dioxide] | 2.2e-07 M | 18 µM | 0.74 µM | – | – | 4.7e-07 M | 9.1e-07 M | – | –
4 | CCc1c2c(nn1C)CNS(=O)(=O)CCCn1c(C(=O)O)c(CCCOc3cccc4ccccc34)c3cccc-2c31 (racemic) [Example 17, (rac)-12-Ethyl-11-methyl-1-(3-(naphthalen-1-yloxy)propyl)-4,5,6,8,9,11-hexahydropyrazolo[3′,4′:4,5][1,2,8]thiadiazacycloundecino[6,7,8-hi]indole-2-carboxylic acid 7,7-dioxide] | 4.7e-06 M | > 20 µM | 21 µM | – | – | 9.3e-06 M | 1.6e-05 M | – | –
5 | CCc1c2c(nn1C)C(C)N(C)S(=O)(=O)CCCn1c(C(=O)O)c(CCCOc3cccc4ccccc34)c3cccc-2c31 (racemic) [Example 18, 12-Ethyl-8,9,11-trimethyl-1-(3-(naphthalen-1-yloxy)propyl)-5,6,9,11-tetrahydro-4H,8H-pyrazolo[3′,4′:4,5][1]thia[2,8]diazacycloundecino[6,7,8-hi]indole-2-carboxylic acid 7,7-dioxide (Mixture of Stereoisomers)] | 3.7e-06 M | > 20 µM | 8.4 µM | – | – | 3.5e-06 M | 9.2e-06 M | – | –
6 | Cc1c2c(nn1C)CN(C)S(=O)(=O)CCCn1c(C(=O)O)c(CCCOc3cccc4cc(F)ccc34)c3ccc(F)c-2c31 (racemic) [Example 25, (rac)-13-Fluoro-1-(3-((6-fluoronaphthalen-1-yl)oxy)propyl)-8,11,12-trimethyl-5,6,9,11-tetrahydro-4H,8H-pyrazolo[3′,4′:4,5][1]thia[2,8]diazacycloundecino[6,7,8-hi]indole-2-carboxylic acid 7,7-dioxide] | 4.1e-07 M | > 20 µM and 51 µM and 46 µM | 1.5 µM | – | – | 7.5e-07 M | 2e-06 M | – | –
7 | CCc1c2c(nn1C)CN(C)S(=O)(=O)CCCn1c(C(=O)O)c(CCCOc3cc(C)c(Cl)c(C)c3)c3ccc(F)c-2c31 (racemic) [Example 33, (rac)-1-(3-(4-Chloro-3,5-dimethylphenoxy)propyl)-12-ethyl-13-fluoro-8,11-dimethyl-5,6,9,11-tetrahydro-4H,8H-pyrazolo[3′,4′:4,5][1]thia[2,8]diazacycloundecino[6,7,8-hi]indole-2-carboxylic acid 7,7-dioxide] | – | > 20 µM | 5.1 µM | – | – | 2.6e-06 M | 6.4e-06 M | – | –

Now from value to compound, other results behind:

Row | IC50 (SUDHL5 [1]; Homo sapiens, SU-DHL-5, 72 h) | IC50 (BCL-2) | EC50 (SUDHL10 [3]; Homo sapiens, SU-DHL10, 3 h) | IC50 (SUDHL5 [1]; 72 hours) | EC50 (SUDHL10 [3]; 3 hours) | Structure (SMILES) | IC50 (SUDHL5 [2]; Homo sapiens, SU-DHL-5, 5 h) | IC50 (SUDHL10 [4]; Homo sapiens, SU-DHL10, 5 h) | IC50 (SUDHL5 [2]) | IC50 (SUDHL10 [4])
8 | 4.4e-06 M | > 20 µM | 16 µM | – | – | CCc1c2c(nn1C)CN(CCCN1CCCC1=O)S(=O)(=O)CCCn1c(C(=O)O)c(CCCOc3cccc4ccccc34)c3cccc-2c31 (racemic) [Example 13, (rac)-12-Ethyl-11-methyl-1-(3-(naphthalen-1-yloxy)propyl)-8-(3-(2-oxopyrrolidin-1-yl)propyl)-5,6,9,11-tetrahydro-4H,8H-pyrazolo[3′,4′:4,5][1]thia[2,8]diazacycloundecino[6,7,8-hi]indole-2-carboxylic acid 7,7-dioxide] | 8.2e-06 M | 1.7e-05 M | – | –
9 | 3.3e-06 M | > 20 µM | 9.2 µM | – | – | CCc1c2c(nn1C)CN(CCN1CCCCC1)S(=O)(=O)CCCn1c(C(=O)O)c(CCCOc3cccc4ccccc34)c3cccc-2c31 (racemic) [Example 14, (rac)-12-Ethyl-11-methyl-1-(3-(naphthalen-1-yloxy)propyl)-8-(2-(piperidin-1-yl)ethyl)-4,5,6,8,9,11-hexahydropyrazolo[3′,4′:4,5][1,2,8]thiadiazacycloundecino[6,7,8-hi]indole-2-carboxylic acid 7,7-dioxide 2,2,2-trifluoroacetic acid salt] | 5.2e-06 M | 8.5e-06 M | – | –
10 | 1.8e-06 M | > 20 µM | 6.4 µM | – | – | CCc1c2c(nn1C)CN(CCCN1CCOCC1)S(=O)(=O)CCCn1c(C(=O)O)c(CCCOc3cccc4ccccc34)c3cccc-2c31 (racemic) [Example 15, (rac)-12-Ethyl-11-methyl-8-(3-morpholinopropyl)-1-(3-(naphthalen-1-yloxy)propyl)-4,5,6,8,9,11-hexahydropyrazolo[3′,4′:4,5][1,2,8]thiadiazacycloundecino[6,7,8-hi]indole-2-carboxylic acid 7,7-dioxide 2,2,2-trifluoroacetic acid salt] | 2.9e-06 M | 6.3e-06 M | – | –
11 | 2.2e-05 M | > 20 µM | > 33 µM | – | – | CCc1c2c(nn1C)CN(CCCN1CCCC1)S(=O)(=O)CCCn1c(C(=O)O)c(CCCOc3cccc4ccccc34)c3cccc-2c31 (racemic) [Example 16, (rac)-12-Ethyl-11-methyl-1-(3-(naphthalen-1-yloxy)propyl)-8-(3-(pyrrolidin-1-yl)propyl)-5,6,9,11-tetrahydro-4H,8H-pyrazolo[3′,4′:4,5][1]thia[2,8]diazacycloundecino[6,7,8-hi]indole-2-carboxylic acid 7,7-dioxide] | 3.2e-05 M | > 3.3e-05 M | – | –

— US11401278B2, “Macrocyclic indole derivatives” (The Broad Institute, Inc., priority 2017, dated 2022)
